# Like-named read-outs stand apart in the source and are kept apart here.
# Legend:
# Assay type in all cases: cell-based, human
# FT282-C11 cells [1] = experiment: CyQuant cell viability assay, FT282-C11 (immortalized FTE control); conditions: for Efficacy: % loss of cell viability at maximum tested concentration; for Fold HGSOC cell selectivity: IC50 in FT282-C11 divided by the averaged IC50 values of CAOV3 and OVCAR4 cells
# Description: (§1) Cells were seeded into 96-well plates and treated with serial dilutions with the designated compounds for 72 h. Medium was then removed from the wells, and the cells were frozen at -80 °C for storage. After thawing, cell viability was analyzed using the CyQUANT™ Cell Proliferation Assay for cells in culture (Invitrogen, ThermoFisher Scientific, Waltham, MA, USA), according to manufacturer’s instructions. The CyQuant assay utilizes a DNA binding fluorescent dye, and the signal is proportional to the number of live cells, which thus reflects the effect of drug treatment on both cell proliferation and cytotoxicity. To integrate these two measures (proliferation and cytotoxicity) into one simple term, we refer to CyQuant data as a measure of cell viability. Fluorescence intensity was measured using POLARstar OPTIMA microplate multi-detection plate reader (BMG LabTech, Cary, NC, USA) with settings specified by the manufacturer’s instructions.
# To investigate the cancer cell selectivity of FOXM1 inhibitors, we utilized the immortalized (FTE) cell line FT282-C11 as non-malignant, cell of origin matched control. […] We tested a sub-set of FOXM1 inhibitors, including the three NB compounds and the two most widely used FOXM1 inhibitors, thiostrepton and FDI-6.
# HGSOC cells = experiment: CyQuant cell viability assay, HGSOC cells (CAOV3 and OVCAR4), summary in words; conditions: summary of Table 3
# Description: as §1
# We investigated the effect of eight previously reported FOXM1 inhibitors on HGSOC cell viability. We utilized CAOV3 and OVCAR4 cells, which are validated to model HGSOC both in vitro and in vivo [38, 39], and measured the effect on cell viability using CyQuant assays. The data are summarized in Table 3 (drugs ordered alphabetically).
# CAOV3 cells [2] = experiment: CyQuant cell viability assay, CAOV3; conditions: for Efficacy: % loss of cell viability at maximum tested concentration
# Description: as §1
# OVCAR4 cells [3] = experiment: CyQuant cell viability assay, OVCAR4; conditions: for Efficacy: % loss of cell viability at maximum tested concentration
# Description: as §1
# CAOV3 cells [4] = experiment: Caspase-3/7 activity assay, CAOV3; conditions: 24 h
# Description: (§2) Cells were seeded into 6-well plates and treated with the designated compounds until the desired time point. Floating cells and trypsinized cells from the wells were collected, centrifuged at 500 × g, and washed with PBS. Cells were prepared using the Muse® Caspase-3/7 Kit (Luminex Corporation, Austin, TX, USA) according to the manufacturer’s instructions. Cells were analyzed by flow cytometry using the Guava® Muse® Cell Analyzer (Luminex Corporation).
# CAOV3 cells [5] = experiment: Incucyte kinetic analysis of live and dead cells; conditions: 0.1 μM
# Description: CAOV3 cells were seeded into 96-well plates in DMEM media containing Incucyte Nuclight Rapid Red Dye (Sartorius, Bohemia, NY, USA, Cat #4717) 1:1,000 (for live cell nuclear labeling) and Incucyte Cytotox Green Dye (Sartorius Cat #4633) 250 μM (for counting of dead cells). The following day, cells were treated with DMSO or NB compounds at 0.1, 0.5 or 1.0 μM concentrations. After treatment, cells were incubated in a Incucyte S3 time lapse imager (Sartorius). We obtained 5 pictures per well every 2 h, for a total of 72 h. Data were analyzed and plotted using Incucyte Live-cell Imaging and Analysis software.
# OVCAR4 cells [6] = experiment: Caspase-3/7 activity assay, OVCAR4; conditions: 24 h
# Description: as §2
# CAOV3 cells [7] = experiment: Drug washout study, CyQuant cell viability; conditions: Fig. 7E-F
# Description: as §1
# To assess FOXM1 protein expression, cells were seeded into 6-well plates and treated with DMSO or NB compounds the next day. At 3- or 6-h post-treatment, media was aspirated and cells were washed with PBS and incubated with drug-free media until reaching 24, 48, or 72 h post the initial treatment. At time points post-treatment, protein was isolated from washout and no washout (i.e., continuous treatment) treatment conditions and used for western blotting. To assess the effects of drug washout on cell viability, cells were seeded in 96-well plates, treated as described above, and cell viability was assessed at 72 h post the initial treatment using CyQuant assays.
# [8] = system: FOXM1 targets (CCNB1, PLK1, AURKB, CDC25B); experiment: Western blot of FOXM1 target proteins in HGSOC cells; conditions: CAOV3 and OVCAR4; low micromolar treatments
# Description: Whole cell proteins were extracted using radio-immunoprecipitation assay (RIPA) buffer (1X PBS, 1% NP-40, 0.5% sodium deoxycholate, 0.1% sodium dodecyl sulfate [SDS]) supplemented with protease and phosphatase inhibitors (Sigma-Aldrich). Briefly, media was removed from cells, cells were washed in ice cold PBS, and cells were lysed for 15 min in RIPA buffer, collected from the plate, and sonicated. The resulting extracts were centrifuged at 4 °C for 10 min at 16,100 × g to remove cell debris. In some cases (e.g., when measuring apoptotic markers such as cleaved PARP) floating cells were isolated in parallel and combined with the remainder of the cell sample prior to protein extraction. Protein concentrations were determined using the Pierce™ BCA Protein Assay Kit (Fisher Scientific, Waltham, MA, USA).
# Equivalent amounts of protein per well, as determined by BCA assays, were loaded into Invitrogen™ NuPAGE™ 4–12%, Bis–Tris, 1.5 mm, mini protein gels (Fisher Scientific) or 7.5% Mini-Protein TGX precast protein gels (Bio-Rad, Hercules, CA, USA), and subsequently transferred to 0.45 µm polyvinylidene difluoride (PVDF) membranes (Millipore Sigma, St. Louis, MO, USA), using a wet transfer system. […] Quantification of protein expression was performed using Fiji software.
# FT282-C11 cells [9] = experiment: Caspase-3/7 activity assay, FT282-C11; conditions: 24 h
# Description: as §2
# [10] = FT282-C11, CyQuant, Table 4, read-out: IC50
# [11] = CAOV3, % loss of cell viability at the maximum tested drug concentration (printed in parentheses in the cell), Table 3
# [12] = CAOV3, CyQuant, Table 4, read-out: IC50
# [13] = CAOV3, cell viability, CyQuant, 72 h, Table 3, read-out: Potency [IC50 (µM)]
# [14] = OVCAR4, % loss of cell viability at the maximum tested drug concentration (printed in parentheses in the cell), Table 3
# [15] = OVCAR4, CyQuant, Table 4, read-out: IC50
# [16] = OVCAR4, cell viability, CyQuant, 72 h, Table 3, read-out: Potency [IC50 (µM)]
# [17] = Homo sapiens, Caov-3, 72 h, read-out: Potency [IC50 (µM)]
# [18] = Homo sapiens, Caov-3, read-out: % Efficacy (maximum dose)
# [19] = Homo sapiens, OVCAR-4, 72 h, read-out: Potency [IC50 (µM)]
# [20] = Homo sapiens, OVCAR-4, read-out: % Efficacy (maximum dose)
Structure (SMILES),"Efficacy (FT282-C11 cells [1]; FT282-C11, Table 4)",IC50 (FT282-C11 cells [1]; [10]),Fold HGSOC cell selectivity (FT282-C11 cells [1]),"potency and efficacy on HGSOC cell viability, in words (HGSOC cells)","Efficacy (CAOV3 cells [2]; CAOV3, Table 4)",% Efficacy (maximum dose) (CAOV3 cells [2]; [11]),IC50 (CAOV3 cells [2]; [12]),IC50 (CAOV3 cells [2]; [13]),"Efficacy (OVCAR4 cells [3]; OVCAR4, Table 4)",% Efficacy (maximum dose) (OVCAR4 cells [3]; [14]),IC50 (OVCAR4 cells [3]; [15]),IC50 (OVCAR4 cells [3]; [16]),IC50 (CAOV3 cells [2]; [17]),Emax (CAOV3 cells [2]; [18]),IC50 (OVCAR4 cells [3]; [19]),Emax (OVCAR4 cells [3]; [20]),also measured
Nc1c(C(=O)Nc2ccc(F)cc2)sc2nc(-c3cccs3)cc(C(F)(F)F)c12 [FDI-6],76%,11000 nM,1.6,low potency,61%,61% (20 μM),9.1 µM,9.1 µM,61%,61% (20 μM),4.7 µM,4.7 µM,,,,,
"CC[C@@]1([C@@H]2O[C@@H]([C@H]3O[C@@](O)(CO)[C@H](C)C[C@@H]3C)C[C@@H]2C)CC[C@H]([C@]2(C)CC[C@]3(C[C@H](O)[C@@H](C)[C@@H]([C@@H](C)[C@@H](OC)[C@H](C)C(=O)O)O3)O2)O1 [Monensin, monensin]",,,,high potency but low efficacy in one cell line (OVCAR4),,,,,,,,,,,,,"Emax (CAOV3 cells [2]; Homo sapiens, Caov-3, CAOV3, % loss of cell viability at the maximum tested drug concentration (printed in parentheses in the cell), Table 3, read-out: % Efficacy (maximum dose)): 100%; IC50 (CAOV3 cells [2]; Homo sapiens, Caov-3, CAOV3, cell viability, CyQuant, 72 h, Table 3, read-out: Potency [IC50 (µM)]): 0.1 µM; Emax (OVCAR4 cells [3]; Homo sapiens, OVCAR-4, OVCAR4, % loss of cell viability at the maximum tested drug concentration (printed in parentheses in the cell), Table 3, read-out: % Efficacy (maximum dose)): 52%; IC50 (OVCAR4 cells [3]; Homo sapiens, OVCAR-4, OVCAR4, cell viability, CyQuant, 72 h, Table 3, read-out: Potency [IC50 (µM)]): 0.024 µM"
"c1ccc(Nc2cc3ccccc3c3ccccc23)cc1 [N-phenylphenanthren-9-amine (NP9), N-phenylphenanthren-9-amine]",,,,low potency,,,,,,,,,23 µM,85%,39 µM,100%,
CC[N+](C)(CC)CCCCCCOc1ccc(C(c2ccc(OCCCCCC[N+](C)(CC)CC)cc2)=C2C3C[C@H]4C[C@@H](C3)C[C@H]2C4)cc1 [NB-115],100%,3800 nM,7.2,,100%,100% (10 μM),0.49 µM,0.49 µM,85%,85% (10 μM),0.56 µM,0.56 µM,,,,,"caspase 3/7 activity (CAOV3 cells [4]): robust increase in caspase 3/7 activity; selectivity for HGSOC cells (FT282-C11 cells [1]; HGSOC cells vs FT282-C11, summary of Table 4): approximately tenfold; cell proliferation compared to the DMSO control (CAOV3 cells [5]): increased proliferation; caspase 3/7 activity (OVCAR4 cells [6]): robust increase in caspase 3/7 activity; IC50 (CAOV3 cells [7]; continuous drug exposure 72 h, viability at 72 h, read-out: IC50 (CAOV3), no washout (72h)): 830 nM; IC50 (CAOV3 cells [7]; washout after 3 h, viability at 72 h post initial treatment, read-out: IC50 (CAOV3), 3 h drug exposure then washout (3h)): 2150 nM; IC50 (CAOV3 cells [7]; washout after 6 h, viability at 72 h post initial treatment, read-out: IC50 (CAOV3), 6 h drug exposure then washout (6h)): 2300 nM; FOXM1 targets at the protein level [8]: suppressed FOXM1 targets at the protein level; caspase 3/7 activity (FT282-C11 cells [9]): but not in FT282-C11 cells"
C=C(NC(=O)C(=C)NC(=O)c1csc(C2=N[C@@H]3c4csc(n4)[C@H]4NC(=O)c5csc(n5)[C@H]([C@](C)(O)[C@@H](C)O)NC(=O)[C@H]5CSC(=N5)/C(=C/C)NC(=O)[C@H]([C@@H](C)O)NC(=O)c5csc(n5)[C@]3(CC2)NC(=O)[C@H](C)NC(=O)C(=C)NC(=O)[C@H](C)NC(=O)[C@H]([C@@H](C)CC)N[C@@H]2C=Cc3c([C@H](C)O)cc(nc3[C@H]2O)C(=O)O[C@@H]4C)n1)C(N)=O [Thiostrepton],100%,,0.91,high potency and efficacy,93%,,,,99%,,,,0.62 µM,93%,0.98 µM,99%,"IC50 (FT282-C11 cells [1]; Homo sapiens): 730 nM; IC50 (CAOV3 cells [2]; Homo sapiens, Caov-3): 0.62 µM; IC50 (OVCAR4 cells [3]; Homo sapiens, OVCAR-4): 0.98 µM"

# — article PMC11069232, “NB compounds are potent and efficacious FOXM1 inhibitors in high-grade serous ovarian cancer cells” (Journal of Ovarian Research, 2024)
